Measured values reported in ChEMBL document CHEMBL1141341, “Minor sesquiterpene lactones from Centaurea pullata and their antimicrobial activity” (2007).
Values after ≈ are worked out from the molar mass of the structure shown.

Legend:
[1] = tested on: Fusarium tricinctum; test: Antifungal activity against Fusarium tricinctum CBS 514478 by microdilution technique; format: functional
[2] = tested on: Micrococcus luteus; test: Antibacterial activity against Micrococcus flavus ATCC 10240 by microdilution technique; format: functional
[3] = tested on: Bacillus subtilis; test: Antibacterial activity against Bacillus subtilis ATCC 10907 by microdilution technique; format: functional
[4] = tested on: Pseudomonas tolaasii; test: Antibacterial activity against Pseudomonas tolaasii by microdilution technique; format: functional
[5] = tested on: Staphylococcus epidermidis; test: Antibacterial activity against Staphylococcus epidermidis ATCC 12228 by microdilution technique; format: functional
[6] = tested on: Salmonella enteritidis; test: Antibacterial activity against Salmonella enteritidis by microdilution technique; format: functional, Salmonella enterica subsp. enterica serovar Enteritidis; settings: Salmonella enterica
[7] = tested on: Escherichia coli; test: Antibacterial activity against Escherichia coli ATCC 35210 by microdilution technique; format: functional
[8] = tested on: Aspergillus flavus; test: Antifungal activity against Aspergillus flavus ATCC 9643 by microdilution technique; format: functional
[9] = tested on: Aspergillus niger; test: Antifungal activity against Aspergillus niger ATCC 6275 by microdilution technique; format: functional
[10] = tested on: Aspergillus ochraceus; test: Antifungal activity against Aspergillus ochraceus ATCC 12066 by microdilution technique; format: functional
[11] = tested on: Talaromyces funiculosus; test: Antifungal activity against Penicillium funiculosum ATCC 36839 by microdilution technique; format: functional
[12] = tested on: Penicillium ochrochloron; test: Antifungal activity against Penicillium ochrochloron ATCC 9112 by microdilution technique; format: functional
[13] = tested on: Trichoderma viride; test: Antifungal activity against Trichoderma viride IAM 5061 by microdilution technique; format: functional
[14] = tested on: Alternaria alternata; test: Antifungal activity against Alternaria alternata DSM 2006 by microdilution technique; format: functional

Compound	MFC [1]	MIC [1]	MBC [2]	MIC [2]	MBC [3]	MIC [3]	MBC [4]	MIC [4]	MBC [5]	MIC [5]	MBC [6]	MIC [6]	MBC [7]	MIC [7]	MFC [8]	MIC [8]	MFC [9]	MIC [9]	MFC [10]	MIC [10]	other results
C=C(C(=O)O[C@H]1C/C(C)=C/CC/C(CO)=C/[C@H]2OC(=O)[C@H](C)[C@H]12)C(O)CO (stereo partly drawn)	0.2 µg/mL (≈ 0.526 µM)	0.1 µg/mL (≈ 0.263 µM)	0.3 µg/mL (≈ 0.789 µM)	0.2 µg/mL (≈ 0.526 µM)	0.2 µg/mL (≈ 0.526 µM)	0.2 µg/mL (≈ 0.526 µM)	0.3 µg/mL (≈ 0.789 µM)	0.2 µg/mL (≈ 0.526 µM)	0.4 µg/mL (≈ 1.05 µM)	0.4 µg/mL (≈ 1.05 µM)	0.3 µg/mL (≈ 0.789 µM)	0.3 µg/mL (≈ 0.789 µM)	0.3 µg/mL (≈ 0.789 µM)	0.2 µg/mL (≈ 0.526 µM)	0.2 µg/mL (≈ 0.526 µM)	0.1 µg/mL (≈ 0.263 µM)	0.3 µg/mL (≈ 0.789 µM)	0.2 µg/mL (≈ 0.526 µM)	0.2 µg/mL (≈ 0.526 µM)	0.1 µg/mL (≈ 0.263 µM)	MFC [11]: 0.3 µg/mL (≈ 0.789 µM); MIC [11]: 0.2 µg/mL (≈ 0.526 µM); MFC [12]: 0.2 µg/mL (≈ 0.526 µM); MIC [12]: 0.1 µg/mL (≈ 0.263 µM); MFC [13]: 0.3 µg/mL (≈ 0.789 µM); MIC [13]: 0.2 µg/mL (≈ 0.526 µM); MFC [14]: 0.2 µg/mL (≈ 0.526 µM); MIC [14]: 0.1 µg/mL (≈ 0.263 µM)
CC(=O)OC/C=C(/CO)C(=O)O[C@H]1C/C(C)=C/CC/C(CO)=C/[C@H]2OC(=O)[C@H](C)[C@H]12	0.3 µg/mL (≈ 0.71 µM)	0.2 µg/mL (≈ 0.473 µM)	0.3 µg/mL (≈ 0.71 µM)	0.2 µg/mL (≈ 0.473 µM)	0.3 µg/mL (≈ 0.71 µM)	0.2 µg/mL (≈ 0.473 µM)	0.3 µg/mL (≈ 0.71 µM)	0.2 µg/mL (≈ 0.473 µM)	0.5 µg/mL (≈ 1.18 µM)	0.4 µg/mL (≈ 0.947 µM)	0.3 µg/mL (≈ 0.71 µM)	0.3 µg/mL (≈ 0.71 µM)	0.3 µg/mL (≈ 0.71 µM)	0.3 µg/mL (≈ 0.71 µM)	0.2 µg/mL (≈ 0.473 µM)	0.2 µg/mL (≈ 0.473 µM)	0.3 µg/mL (≈ 0.71 µM)	0.2 µg/mL (≈ 0.473 µM)	0.2 µg/mL (≈ 0.473 µM)	0.1 µg/mL (≈ 0.237 µM)	MFC [11]: 0.3 µg/mL (≈ 0.71 µM); MIC [11]: 0.2 µg/mL (≈ 0.473 µM); MFC [12]: 0.2 µg/mL (≈ 0.473 µM); MIC [12]: 0.1 µg/mL (≈ 0.237 µM); MFC [13]: 0.3 µg/mL (≈ 0.71 µM); MIC [13]: 0.2 µg/mL (≈ 0.473 µM); MFC [14]: 0.3 µg/mL (≈ 0.71 µM); MIC [14]: 0.2 µg/mL (≈ 0.473 µM)
C=C(CCO)C(=O)O[C@H]1C[C@]2(C)C([C@H](C=O)CC[C@H]2O)[C@H]2OC(=O)[C@H](C)[C@H]12 (stereo partly drawn)	0.3 µg/mL (≈ 0.789 µM)	0.2 µg/mL (≈ 0.526 µM)	0.3 µg/mL (≈ 0.789 µM)	0.2 µg/mL (≈ 0.526 µM)	0.3 µg/mL (≈ 0.789 µM)	0.2 µg/mL (≈ 0.526 µM)	0.5 µg/mL (≈ 1.31 µM)	0.4 µg/mL (≈ 1.05 µM)	0.5 µg/mL (≈ 1.31 µM)	0.4 µg/mL (≈ 1.05 µM)	0.4 µg/mL (≈ 1.05 µM)	0.4 µg/mL (≈ 1.05 µM)	0.4 µg/mL (≈ 1.05 µM)	0.4 µg/mL (≈ 1.05 µM)	0.3 µg/mL (≈ 0.789 µM)	0.2 µg/mL (≈ 0.526 µM)	0.3 µg/mL (≈ 0.789 µM)	0.2 µg/mL (≈ 0.526 µM)	0.3 µg/mL (≈ 0.789 µM)	0.2 µg/mL (≈ 0.526 µM)	MFC [11]: 0.4 µg/mL (≈ 1.05 µM); MIC [11]: 0.3 µg/mL (≈ 0.789 µM); MFC [12]: 0.4 µg/mL (≈ 1.05 µM); MIC [12]: 0.3 µg/mL (≈ 0.789 µM); MFC [13]: 0.4 µg/mL (≈ 1.05 µM); MIC [13]: 0.3 µg/mL (≈ 0.789 µM); MFC [14]: 0.3 µg/mL (≈ 0.789 µM); MIC [14]: 0.2 µg/mL (≈ 0.526 µM)
C=C(CCO)C(=O)O[C@H]1C/C(C)=C/CC/C(CO)=C/[C@H]2OC(=O)[C@H](C)[C@H]12	0.3 µg/mL (≈ 0.823 µM)	0.2 µg/mL (≈ 0.549 µM)	0.3 µg/mL (≈ 0.823 µM)	0.2 µg/mL (≈ 0.549 µM)	0.2 µg/mL (≈ 0.549 µM)	0.2 µg/mL (≈ 0.549 µM)	0.3 µg/mL (≈ 0.823 µM)	0.3 µg/mL (≈ 0.823 µM)	0.4 µg/mL (≈ 1.1 µM)	0.4 µg/mL (≈ 1.1 µM)	0.3 µg/mL (≈ 0.823 µM)	0.3 µg/mL (≈ 0.823 µM)	0.2 µg/mL (≈ 0.549 µM)	0.2 µg/mL (≈ 0.549 µM)	0.2 µg/mL (≈ 0.549 µM)	0.1 µg/mL (≈ 0.274 µM)	0.3 µg/mL (≈ 0.823 µM)	0.2 µg/mL (≈ 0.549 µM)	0.2 µg/mL (≈ 0.549 µM)	0.1 µg/mL (≈ 0.274 µM)	MFC [11]: 0.3 µg/mL (≈ 0.823 µM); MIC [11]: 0.2 µg/mL (≈ 0.549 µM); MFC [12]: 0.2 µg/mL (≈ 0.549 µM); MIC [12]: 0.1 µg/mL (≈ 0.274 µM); MFC [13]: 0.3 µg/mL (≈ 0.823 µM); MIC [13]: 0.2 µg/mL (≈ 0.549 µM); MFC [14]: 0.3 µg/mL (≈ 0.823 µM); MIC [14]: 0.2 µg/mL (≈ 0.549 µM)
C=C(CCO)C(=O)O[C@H]1C[C@]2(C)C([C@H]3OC(=O)[C@H](C)[C@H]13)[C@@H](C=O)CC[C@H]2O (stereo partly drawn)	0.3 µg/mL (≈ 0.789 µM)	0.2 µg/mL (≈ 0.526 µM)	0.3 µg/mL (≈ 0.789 µM)	0.2 µg/mL (≈ 0.526 µM)	0.3 µg/mL (≈ 0.789 µM)	0.2 µg/mL (≈ 0.526 µM)	0.3 µg/mL (≈ 0.789 µM)	0.2 µg/mL (≈ 0.526 µM)	0.5 µg/mL (≈ 1.31 µM)	0.4 µg/mL (≈ 1.05 µM)	0.4 µg/mL (≈ 1.05 µM)	0.4 µg/mL (≈ 1.05 µM)	0.4 µg/mL (≈ 1.05 µM)	0.4 µg/mL (≈ 1.05 µM)	0.3 µg/mL (≈ 0.789 µM)	0.2 µg/mL (≈ 0.526 µM)	0.3 µg/mL (≈ 0.789 µM)	0.2 µg/mL (≈ 0.526 µM)	0.3 µg/mL (≈ 0.789 µM)	0.2 µg/mL (≈ 0.526 µM)	MFC [11]: 0.4 µg/mL (≈ 1.05 µM); MIC [11]: 0.3 µg/mL (≈ 0.789 µM); MFC [12]: 0.4 µg/mL (≈ 1.05 µM); MIC [12]: 0.3 µg/mL (≈ 0.789 µM); MFC [13]: 0.5 µg/mL (≈ 1.31 µM); MIC [13]: 0.4 µg/mL (≈ 1.05 µM); MFC [14]: 0.3 µg/mL (≈ 0.789 µM); MIC [14]: 0.2 µg/mL (≈ 0.526 µM)
CN[C@@H]1[C@H](O[C@H]2[C@H](O[C@H]3[C@H](O)[C@@H](O)[C@H](N=C(N)N)[C@@H](O)[C@@H]3N=C(N)N)O[C@@H](C)[C@]2(O)C=O)O[C@@H](CO)[C@H](O)[C@H]1O (stereo in doubt) [STREPTOMYCIN]			1 µg/mL (≈ 1.72 µM)	0.5 µg/mL (≈ 0.86 µM)	0.5 µg/mL (≈ 0.86 µM)	0.5 µg/mL (≈ 0.86 µM)	2 µg/mL (≈ 3.44 µM)	1 µg/mL (≈ 1.72 µM)	1 µg/mL (≈ 1.72 µM)	1 µg/mL (≈ 1.72 µM)	1 µg/mL (≈ 1.72 µM)	1 µg/mL (≈ 1.72 µM)	1 µg/mL (≈ 1.72 µM)	0.5 µg/mL (≈ 0.86 µM)							
Clc1ccc(COC(Cn2ccnc2)c2ccc(Cl)cc2Cl)c(Cl)c1 (stereo not drawn) [MICONAZOLE]	1 µg/mL (≈ 2.4 µM)	0.2 µg/mL (≈ 0.481 µM)													2 µg/mL (≈ 4.81 µM)	0.5 µg/mL (≈ 1.2 µM)	4 µg/mL (≈ 9.61 µM)	1.5 µg/mL (≈ 3.6 µM)	4 µg/mL (≈ 9.61 µM)	1.5 µg/mL (≈ 3.6 µM)	MFC [11]: 5 µg/mL (≈ 12 µM); MIC [11]: 2 µg/mL (≈ 4.81 µM); MFC [12]: 5 µg/mL (≈ 12 µM); MIC [12]: 2 µg/mL (≈ 4.81 µM); MFC [13]: 2 µg/mL (≈ 4.81 µM); MIC [13]: 2 µg/mL (≈ 4.81 µM); MFC [14]: 1 µg/mL (≈ 2.4 µM); MIC [14]: 0.2 µg/mL (≈ 0.481 µM)
